From patent US10005731B2, “Modulators of the retinoid-related orphan receptor gamma (ROR-gamma) for use in the treatment of autoimmune and inflammatory diseases” (Glaxo Group Limited, priority 2012, dated 2018)
Read-outs that look alike come from different tables or passages of the source.

How the values were obtained:
RORγ = biological target: T1, RORγ (Homo sapiens, UniProt P51449); assay: Jurkat cell luciferase assay (human IL17 promoter reporter, RORγt overexpression); assay type: cell-based; settings: mean pIC50; detection limit of the assay 5
T1 construct: expressed in transfected cells
T1 sequence (P51449 1-497 isoform P51449-2): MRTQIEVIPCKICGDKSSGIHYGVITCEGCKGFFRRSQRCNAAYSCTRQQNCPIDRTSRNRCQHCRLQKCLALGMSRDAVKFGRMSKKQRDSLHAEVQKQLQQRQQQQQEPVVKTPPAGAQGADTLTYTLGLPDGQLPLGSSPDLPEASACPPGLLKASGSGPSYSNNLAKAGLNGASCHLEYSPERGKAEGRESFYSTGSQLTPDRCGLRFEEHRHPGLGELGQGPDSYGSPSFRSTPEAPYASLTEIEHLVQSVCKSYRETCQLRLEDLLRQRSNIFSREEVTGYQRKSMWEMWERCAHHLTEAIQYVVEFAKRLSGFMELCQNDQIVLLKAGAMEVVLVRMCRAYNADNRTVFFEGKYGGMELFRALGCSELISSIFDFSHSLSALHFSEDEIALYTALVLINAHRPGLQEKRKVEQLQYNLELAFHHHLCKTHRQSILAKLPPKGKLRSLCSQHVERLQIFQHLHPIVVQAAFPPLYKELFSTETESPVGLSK
Description: RORγ is known to bind to a CNS (conserved non-coding sequences) enhancer element in the IL17 promoter. In this assay, RORγ activity is indirectly assessed using a luciferase reporter construct which contains the human IL17 promoter having the RORγ-specific CNS enhancer element. Inhibition of RORγ activity by a compound will result in a decrease in luciferase activity of Jurkat cells transfected with the reporter construct.
. For the 1.1 Kb fragment, PCR was used to amplify human IL17 proximal promoter region from genomic DNA of 293T cells using primers as follows: forward primer, 5′-[…]-3′ (SEQ ID NO. 4) (Xhol site is underlined) and reverse primer, 5′-[…]-3′ SEQ ID NO. 5) (HindIII site is underlined). The 1.1 kb DNA bands were excised, purified, and inserted into pMD19-T Simple Vector (Takara). After DNA sequencing confirmation, the 1.1 kb DNA was digested with XhoI and HindIII and inserted into XhoI/HindIII sites of pGL4.31[luc2P/GAL4UAS/Hygro] (Promega) to generate the pIL17-lkb-luc reporter construct. For the 1.9 Kb fragment, PCR was used to amplify human IL17 promoter region from genomic DNA using primers as follows: forward primer, 5′-[…]-3′ (SEQ ID NO. 6) (KpnI site is underlined) and reverse primer, 5′-[…]-3′ (SEQ ID NO. 7)(XhoI site is underlined). The resulting 1.9 kb DNA bands were excised, gel purified, and cloned into a pMD19-T Simple Vector (Takara). […] The 1.9 kb DNA fragment was released by double digestion with KpnI and XhoI and inserted into pIL17-lkb-luc to generate the luciferase reporter plasmid “pIL17-3kb-CNS-luc.” To overexpress RORγt, the full-length cDNA of human RORγt identical to the published sequence NM13 001001523 was cloned into pcDNA3.1 at the KpnI-NotI cloning sites to generate the RORγt overexpression plasmid “CDNA3.1DhRORγ49-8”. […]
Compounds were dissolved in DMSO at three concentrations, 10 mM, 400 uM and 16 uM, and were dispensed into 384-wells assay plate at 40 nl, 12.5 nl, 5 nl respectively. The volume was adjusted with pure DMSO to a give a final uniform volume of 40 nl Jurkat cells described above were counted and centrifuged. […]

[1] = In vitro percutaneous study (Franz diffusion cells, aqueous cream); assay type: in vitro ADME, human; settings: 1.0% w/w in aqueous cream pH=6, 5 mg/cm^2, human skin from three donors
Description: The in vitro percutaneous study is aimed to predict the level of percutaneous penetration obtained for a compound in a topical formulation for psoriasis. This assay coupled with the intrinsic potency of the compound are used to predict the likelihood of success of a compound to engage the target. The higher the ratio of the percutaneous penetration to the intrinsic potency, the higher the ratio of local skin concentration to the intrinsic potency and therefore the higher the chance of a compound to engage the target in a topical formulation.
The compounds were manufactured in a modified aqueous cream at pH=6.
The study was conducted with dermatomed abdominal human skin sourced from three skin donors using 2 cm2 Franz diffusion cells. The receiving fluid consisted of Bovine serum albumin (4% w/v) in 0.1% w/v sodium azide in Phospate Buffer Saline and was heated at 37° C. in order to obtain 32° C. at the skin surface. The cream formulation was applied on the donor side at a 10 mg dose, i.e. 5 mg/cm^2. The samples taken at the following time points: t=0, 3, 6, 9 and 24 h. The receiver samples were then assayed using a method based upon protein precipitation with acetonitrile followed by LC/MS/MS analysis. The percutaneous flux (in ng/cm^2/hr) was determined using the individual API (in a multiple composition) that had permeated into the receiver compartment over 24 hrs per cm^2.

Mouse CD4+ cells = assay: Th17 cell differentiation assay (IL-17 ELISA); assay type: cell-based; settings: table with percutaneous study
Description: Mouse CD4+cells were purified using the CD4+ T Cell Isolation II Kit according to manufacturer's instructions (Miltenyi Biotec). 96 well plates were pre-coated with anti-mCD3 antibody. Un-coated wells were used as controls. CD4+ Cells were resuspended in RPMI 1640 complete medium and were added to the 96-well plates. Cytokine cocktail and the compound were then added to the wells. Antibodies and cytokines (all from R&D Systems) used in the assay were selected from the following: anti-mCD3; anti-mCD28; anti-mIFNγ; anti-mIL4; mIL-6; mIL-23; mIL-1β; hTGF-β1. The culture was incubated at 37° C. for 3 days and supernatants were collected for ELISA. The IL-17 ELISAs were performed according to manufacturer's instructions (R&D Systems). The results were analyzed using Prism software with non-linear regression to determine pIC50.

IC50 (RORγ)	Flux over 24 hrs [1]	IC50 (Mouse CD4+ cells; read-out: Th17 cell differentiation assay IC50)	IC50 (Mouse CD4+ cells; read-out: Th17 cell differentiation assay pIC50 (converted))	SMILES
> 10 µM	–	–	–	Cc1cnc(C(=O)Nc2cc(F)cc(CN3CCN(C(=O)C4CCCC4)[C@@H](C)C3)c2C)cn1 [Example 36, (S)-N-(3-((4-(cyclopentanecarbonyl)-3-methylpiperazin-1-yl)methyl)-5-fluoro-2-methylphenyl)-5-methylpyrazine-2-carboxamide]
–	3.12 ng/cm^2/hr	9.3 ng/mL	0.02 µM	Cc1ccc(C(=O)Nc2cc(F)cc(CN3CCN(C(=O)C4CC(C)(C)C4)[C@@H](C)C3)c2C)cn1 [Example 164, (S)-N-(3-((4-(3,3-dimethylcyclobutanecarbonyl)-3-methylpiperazin-1-yl)methyl)-5-fluoro-2-methylphenyl)-6-methylnicotinamide]
